Assay: in vitro
Settings: human, hek293t cells

Row | Compound | viability at 48 h, 25 µM
1 | O=C(CCl)NCCc1cccc(Cl)c1 [5-O05, 2-chloro-N-[2-(3-chlorophenyl)ethyl]acetamide] | 36.9%
2 | O=C(CCl)c1ccc(Cl)c(Cl)c1 [10-L16, 2-chloro-1-(3,4-dichlorophenyl)ethan-1-one] | 31.3%
3 | C=CC(=O)N(Cc1ccc2c(c1)CCC2)Cc1c(C)noc1C [1-L09, N-[(2,3-dihydro-1H-inden-5-yl)methyl]-N-[(3,5-dimethyl-1,2-oxazol-4-yl)methyl]prop-2-enamide] | 92.1%
4 | C=CC(=O)N1CCC(c2nc(C3CC3)no2)C1 (centres unmarked) [2-E09, 1-[3-(3-cyclopropyl-1,2,4-oxadiazol-5-yl)pyrrolidin-1-yl]prop-2-en-1-one] | 70%
5 | Cc1cccc(C)c1NC(=O)C(C#N)=Cc1c(C)n[nH]c1C [8-O20, 2-cyano-3-(3,5-dimethyl-1H-pyrazol-4-yl)-N-(2,6-dimethylphenyl)prop-2-enamide] | 51.4%
6 | Cc1ccc(C=C(C#N)C(=O)NC2CC2)s1 [9-K15, 2-cyano-N-cyclopropyl-3-(5-methylthiophen-2-yl)prop-2-enamide] | 126%
7 | C=CC(=O)N1CCC(c2nc(C(=O)O)co2)CC1 [2-K03, 2-[1-(prop-2-enoyl)piperidin-4-yl]-1,3-oxazole-4-carboxylic acid] | 99.1%
8 | C=CC(=O)NCc1cn(-c2ccccc2)nn1 [2-I13, N-[(1-phenyl-1H-1,2,3-triazol-4-yl)methyl]prop-2-enamide] | 76.1%
9 | C=CC(=O)NCCC(=O)N1CCSC(C)CC1 (centres unmarked) [2-K08, N-[3-(7-methyl-1,4-thiazepan-4-yl)-3-oxopropyl]prop-2-enamide] | 91.8%
10 | N#CC(=Cc1ccccc1)C(=O)Nc1ccccc1-c1ccccc1 [8-A15, N-{[1,1'-biphenyl]-2-yl}-2-cyano-3-phenylprop-2-enamide] | 90.1%
11 | N#CC(=Cc1coc2ccccc2c1=O)C(=O)NCCc1ccccc1 [9-J10, 2-cyano-3-(4-oxo-4H-chromen-3-yl)-N-(2-phenylethyl)prop-2-enamide] | 107%
12 | C=CC(=O)Nc1ccc(C(=O)N2CCCCC2c2n[nH]c(C)n2)cc1 (centres unmarked) [3-E13, N-{4-[2-(5-methyl-1H-1,2,4-triazol-3-yl)piperidine-1-carbonyl]phenyl}prop-2-enamide] | 34.9%
13 | CC(Cl)C(=O)N1CCN(C)C(c2nc(C3CC3)no2)C1 (centres unmarked) [7-I08, 2-chloro-1-[3-(3-cyclopropyl-1,2,4-oxadiazol-5-yl)-4-methylpiperazin-1-yl]propan-1-one] | 84.4%
14 | O=C(CCl)NCCc1ccc2c(c1)OCCO2 [4-N11, 2-chloro-N-[2-(2,3-dihydro-1,4-benzodioxin-6-yl)ethyl]acetamide] | 18.9%
15 | O=C(CCl)N(CC1=CCSC1)c1ccccc1 [4-F11, 2-chloro-N-[(2,5-dihydrothiophen-3-yl)methyl]-N-phenylacetamide] | 0.548%
16 | Cc1cc(C(=O)CCl)c(C)n1CC1CCCO1 (centres unmarked) [10-B08, 2-chloro-1-{2,5-dimethyl-1-[(oxolan-2-yl)methyl]-1H-pyrrol-3-yl}ethan-1-one] | 54.2%
17 | CC(Cl)C(=O)N[C@H]1C[C@@H]1c1cnn(-c2ccccc2)c1 (mixture of isomers) [7-M08, rac-2-chloro-N-[(1R,2S)-2-(1-phenyl-1H-pyrazol-4-yl)cyclopropyl]propanamide] | 76.7%
18 | CCOC(=O)c1[nH]c(C)c(C(=O)CCl)c1C [10-A10, ethyl 4-(2-chloroacetyl)-3,5-dimethyl-1H-pyrrole-2-carboxylate] | 0.365%
19 | CC(Cl)C(=O)Nc1ccccc1F (centres unmarked) [5-L10, 2-chloro-N-(2-fluorophenyl)propanamide] | 99.2%
20 | C=CC(=O)N(Cc1nonc1C)CC1C(C)=CCCC1C (centres unmarked) [1-F15, N-[(2,6-dimethylcyclohex-2-en-1-yl)methyl]-N-[(4-methyl-1,2,5-oxadiazol-3-yl)methyl]prop-2-enamide] | 108%
21 | Cc1cc(C=C(C#N)C(=O)N2CC[C@H](O)C2)c(C)n1CC1CCCO1 (stereo partly drawn) [9-P04, 3-{2,5-dimethyl-1-[(oxolan-2-yl)methyl]-1H-pyrrol-3-yl}-2-[(3S)-3-hydroxypyrrolidine-1-carbonyl]prop-2-enenitrile] | 131%
22 | CN(C(=O)c1ccccc1)C1CC2CCC(C1)N2C(=O)CCl (centres unmarked) [5-J03, N-[8-(2-chloroacetyl)-8-azabicyclo[3.2.1]octan-3-yl]-N-methylbenzamide] | 1.62%
23 | C=CC(=O)NCc1ccc(S(=O)(=O)NC2CC2)cc1 [2-P19, N-{[4-(cyclopropylsulfamoyl)phenyl]methyl}prop-2-enamide] | 62.3%
24 | O=C(CCl)NC(c1ccccc1)c1cccs1 (centres unmarked) [4-J14, 2-chloro-N-[phenyl(thiophen-2-yl)methyl]acetamide] | 1.95%
25 | CC(Cl)C(=O)Nc1cc(C(F)(F)F)ccc1Cl (centres unmarked) [4-N15, 2-chloro-N-[2-chloro-5-(trifluoromethyl)phenyl]propanamide] | 83.3%
26 | N#CCCN(Cc1ccco1)C(=O)CCl [5-D20, 2-chloro-N-(2-cyanoethyl)-N-[(furan-2-yl)methyl]acetamide] | 1.25%
27 | CC(Cl)C(=O)NCc1ncnn1C(C)C (centres unmarked) [5-P15, 2-chloro-N-{[1-(propan-2-yl)-1H-1,2,4-triazol-5-yl]methyl}propanamide] | 125%

Row | Compound | viability at 48 h, 25 µM
28 | C=CC(=O)N1CCC(C(=O)Nc2cc(OCC)ccc2Cl)CC1 [1-I20, N-(2-chloro-5-ethoxyphenyl)-1-(prop-2-enoyl)piperidine-4-carboxamide] | 122%
29 | O=C(CCl)NC(=O)Nc1ccccc1 [4-I17, 3-(2-chloroacetyl)-1-phenylurea] | 64%
30 | C=CC(=O)Nc1ccnc(OC)c1 [2-F21, N-(2-methoxypyridin-4-yl)prop-2-enamide] | 1.66%
31 | N#CC(=Cc1cc(F)ccc1F)C(=O)Nc1ccc(F)cc1F [8-C10, 2-cyano-N-(2,4-difluorophenyl)-3-(2,5-difluorophenyl)prop-2-enamide] | 91.2%
32 | Cc1ccc(C2CC(c3cccs3)=NN2C(=O)CCl)cc1 (centres unmarked) [4-I22, 2-chloro-1-[5-(4-methylphenyl)-3-(thiophen-2-yl)-4,5-dihydro-1H-pyrazol-1-yl]ethan-1-one] | 0.369%
33 | CCc1ccc(CNC(=O)CCl)s1 [6-K05, 2-chloro-N-[(5-ethylthiophen-2-yl)methyl]acetamide] | 5.18%
34 | C=CC(=O)N1CCN(C(C)c2nc(C)no2)CC1 (centres unmarked) [3-M11, 1-{4-[1-(3-methyl-1,2,4-oxadiazol-5-yl)ethyl]piperazin-1-yl}prop-2-en-1-one] | 61%
35 | CC1CC(C(=O)CCl)CO1 (centres unmarked) [10-M13, 2-chloro-1-(5-methyloxolan-3-yl)ethan-1-one] | 102%
36 | Cc1ccccc1NC(=O)C(C#N)=Cc1ccsc1 [8-K15, 2-cyano-N-(2-methylphenyl)-3-(thiophen-3-yl)prop-2-enamide] | 77.5%
37 | COCc1ccc(CNC(=O)CCl)cc1 [6-O22, 2-chloro-N-{[4-(methoxymethyl)phenyl]methyl}acetamide] | 99.4%
38 | CC(Cl)C(=O)NCCc1ccc(F)cc1 (centres unmarked) [6-F06, 2-chloro-N-[2-(4-fluorophenyl)ethyl]propanamide] | 112%
39 | Cc1ccccc1NC(=O)C(C#N)=Cc1cccc2ccccc12 [8-H09, 2-cyano-N-(2-methylphenyl)-3-(naphthalen-1-yl)prop-2-enamide] | 88.4%
40 | CC(Cl)C(=O)Nc1cccc(S(=O)(=O)N2CCCCC2)c1 (centres unmarked) [5-L12, 2-chloro-N-[3-(piperidine-1-sulfonyl)phenyl]propanamide] | 98.7%
41 | CC(Cl)C(=O)N1CCN(C(c2ccccc2)C(F)(F)F)CC1 (centres unmarked) [6-P16, 2-chloro-1-[4-(2,2,2-trifluoro-1-phenylethyl)piperazin-1-yl]propan-1-one] | 114%
42 | CCCc1cc(NC(=O)CCl)n(-c2ccccc2)n1 [4-M03, 2-chloro-N-(1-phenyl-3-propyl-1H-pyrazol-5-yl)acetamide] | 0.483%
43 | O=C(CCl)Nc1cc(S(=O)(=O)N2CCOCC2)ccc1O [6-J12, 2-chloro-N-[2-hydroxy-5-(morpholine-4-sulfonyl)phenyl]acetamide] | 116%
44 | C=CCNC(=O)C(C#N)=Cc1cc(C)n(-c2ccc(C)cc2)c1C [8-C17, 2-cyano-3-[2,5-dimethyl-1-(4-methylphenyl)-1H-pyrrol-3-yl]-N-(prop-2-en-1-yl)prop-2-enamide] | 60.7%
45 | Nc1c(C(=O)CCl)c(=O)[nH]c(=O)n1Cc1ccccc1 [10-J18, 6-amino-1-benzyl-5-(2-chloroacetyl)-1,2,3,4-tetrahydropyrimidine-2,4-dione] | 88.2%
46 | O=C(CCl)N(Cc1ccc(Cl)c([N+](=O)[O-])c1)c1ccccc1 [6-H06, 2-chloro-N-[(4-chloro-3-nitrophenyl)methyl]-N-phenylacetamide] | 0.976%
47 | O=C(CCl)NCC1CCN(C(=O)Cc2ccccc2)C1 (centres unmarked) [7-B08, 2-chloro-N-{[1-(2-phenylacetyl)pyrrolidin-3-yl]methyl}acetamide] | 0.975%
48 | N#CC(=Cc1ccccc1Cl)C(=O)NCc1ccccc1 [9-F13, N-benzyl-3-(2-chlorophenyl)-2-cyanoprop-2-enamide] | 80.5%
49 | CC(Cl)C(=O)NCc1cc2sccc2s1 (centres unmarked) [6-B07, 2-chloro-N-({thieno[3,2-b]thiophen-2-yl}methyl)propanamide] | 109%
50 | CCC(=O)Nc1cccc(NC(=O)CCl)c1C [5-K04, N-[3-(2-chloroacetamido)-2-methylphenyl]propanamide] | 2.12%
51 | C=CC(=O)Nc1cnn(CCF)c1 [1-E05, N-[1-(2-fluoroethyl)-1H-pyrazol-4-yl]prop-2-enamide] | 78.3%
52 | COc1cc(C=C(C#N)C(=O)Nc2cccc(C)c2)c2c(c1)CC(C)O2 (centres unmarked) [8-N22, 2-cyano-3-(5-methoxy-2-methyl-2,3-dihydro-1-benzofuran-7-yl)-N-(3-methylphenyl)prop-2-enamide] | 83.2%
53 | C=CC(=O)Nc1ccc(C(=O)NC2CC(C)(C)OC2=O)cc1 (centres unmarked) [3-B08, N-(5,5-dimethyl-2-oxooxolan-3-yl)-4-(prop-2-enamido)benzamide] | 82.4%
